According to PubChem BioAssay (NCI):
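A five-concentration, 48-hour dose response in 96-well plates underlies each endpoint, interpolated linearly between surrounding concentrations. Abbreviation: GI50, concentration required for 50% inhibition of growth. TGI: total growth inhibition.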

How the values were obtained:
Assay in all cases: NCI tumour cell line growth inhibition, 48 h
UACC-62 melanoma = test system: UACC-62 melanoma
NCI-H460 lung = test system: NCI-H460 lung
MCF7 breast = test system: MCF7 breast
MALME-3M melanoma = test system: MALME-3M melanoma
DU-145 prostate = test system: DU-145 prostate
HCT-15 colon = test system: HCT-15 colon
786-0 renal = test system: 786-0 renal
KM12 colon = test system: KM12 colon
SK-OV-3 ovarian = test system: SK-OV-3 ovarian
OVCAR-4 ovarian = test system: OVCAR-4 ovarian
SF-268 CNS = test system: SF-268 CNS
K-562 leukemia = test system: K-562 leukemia
HOP-92 NSCLC = test system: HOP-92 NSCLC
UACC-257 melanoma = test system: UACC-257 melanoma
HS 578T breast = test system: HS 578T breast
SNB-75 CNS = test system: SNB-75 CNS
LOX IMVI melanoma = test system: LOX IMVI melanoma
HCC-2998 colon = test system: HCC-2998 colon
UO-31 renal = test system: UO-31 renal
MOLT-4 leukemia = test system: MOLT-4 leukemia
HL-60(TB) leukemia = test system: HL-60(TB) leukemia
NCI-H226 lung = test system: NCI-H226 lung
ACHN renal = test system: ACHN renal
OVCAR-8 ovarian = test system: OVCAR-8 ovarian
M14 melanoma = test system: M14 melanoma
HT29 colon = test system: HT29 colon
HOP-62 NSCLC = test system: HOP-62 NSCLC
COLO 205 colon = test system: COLO 205 colon
OVCAR-3 ovarian = test system: OVCAR-3 ovarian
NCI/ADR-RES ovarian = test system: NCI/ADR-RES ovarian
SW-620 colon = test system: SW-620 colon
RPMI-8226 leukemia = test system: RPMI-8226 leukemia
MDA-MB-231 breast = test system: MDA-MB-231 breast
HCT-116 colon = test system: HCT-116 colon
A549 NSCLC = test system: A549 NSCLC
U251 CNS = test system: U251 CNS
OVCAR-5 ovarian = test system: OVCAR-5 ovarian
TK-10 renal = test system: TK-10 renal
MDA-MB-435 = test system: MDA-MB-435
NCI-H522 lung = test system: NCI-H522 lung
EKVX NSCLC = test system: EKVX NSCLC
SF-539 CNS = test system: SF-539 CNS
CCRF-CEM leukemia = test system: CCRF-CEM leukemia
PC-3 prostate = test system: PC-3 prostate
NCI-H23 lung = test system: NCI-H23 lung
SF-295 CNS = test system: SF-295 CNS
IGROV1 ovarian = test system: IGROV1 ovarian
SK-MEL-5 melanoma = test system: SK-MEL-5 melanoma
CAKI-1 renal = test system: CAKI-1 renal
SK-MEL-2 melanoma = test system: SK-MEL-2 melanoma
BT-549 breast = test system: BT-549 breast
SN12C renal = test system: SN12C renal
A498 renal = test system: A498 renal
RXF 393 renal = test system: RXF 393 renal
SNB-19 CNS = test system: SNB-19 CNS
SK-MEL-28 melanoma = test system: SK-MEL-28 melanoma
T-47D breast = test system: T-47D breast

CC[C@H](Nc1nc(NCc2cnc(C)cc2C)c2ncn(C(C)C)c2n1)[C@@H](C)O
GI50 (UACC-62 melanoma): 304 nM | TGI (UACC-62 melanoma): 1880 nM | GI50 (NCI-H460 lung): 327 nM | TGI (NCI-H460 lung): 15700 nM | GI50 (MCF7 breast): 284 nM | TGI (MCF7 breast): 7230 nM | GI50 (MALME-3M melanoma): 1180 nM | TGI (MALME-3M melanoma): 4220 nM | GI50 (DU-145 prostate): 387 nM | TGI (DU-145 prostate): > 100000 nM | GI50 (HCT-15 colon): 349 nM | TGI (HCT-15 colon): 4890 nM | GI50 (786-0 renal): 361 nM | TGI (786-0 renal): > 100000 nM | GI50 (KM12 colon): 312 nM | TGI (KM12 colon): 12200 nM | GI50 (SK-OV-3 ovarian): 3890 nM | TGI (SK-OV-3 ovarian): > 100000 nM | GI50 (OVCAR-4 ovarian): 631 nM | TGI (OVCAR-4 ovarian): 11500 nM | GI50 (SF-268 CNS): 268 nM | TGI (SF-268 CNS): 2410 nM | GI50 (K-562 leukemia): 480 nM | TGI (K-562 leukemia): > 100000 nM | GI50 (HOP-92 NSCLC): 279 nM | TGI (HOP-92 NSCLC): 2270 nM | GI50 (UACC-257 melanoma): 410 nM | TGI (UACC-257 melanoma): > 100000 nM | GI50 (HS 578T breast): 281 nM | TGI (HS 578T breast): 956 nM | GI50 (SNB-75 CNS): 159 nM | TGI (SNB-75 CNS): 407 nM | GI50 (LOX IMVI melanoma): 252 nM | TGI (LOX IMVI melanoma): > 67500 nM | GI50 (HCC-2998 colon): 291 nM | TGI (HCC-2998 colon): 2000 nM | GI50 (UO-31 renal): 272 nM | TGI (UO-31 renal): > 100000 nM | GI50 (MOLT-4 leukemia): 339 nM | TGI (MOLT-4 leukemia): > 100000 nM | GI50 (HL-60(TB) leukemia): 270 nM | TGI (HL-60(TB) leukemia): 744 nM | GI50 (NCI-H226 lung): 267 nM | TGI (NCI-H226 lung): 934 nM | GI50 (ACHN renal): 327 nM | TGI (ACHN renal): > 100000 nM | GI50 (OVCAR-8 ovarian): 382 nM | TGI (OVCAR-8 ovarian): > 100000 nM | GI50 (M14 melanoma): 318 nM | TGI (M14 melanoma): 4310 nM | GI50 (HT29 colon): 331 nM | TGI (HT29 colon): > 100000 nM | GI50 (HOP-62 NSCLC): 356 nM | TGI (HOP-62 NSCLC): > 59700 nM | GI50 (COLO 205 colon): 247 nM | TGI (COLO 205 colon): 640 nM | GI50 (OVCAR-3 ovarian): 355 nM | TGI (OVCAR-3 ovarian): > 24100 nM | GI50 (NCI/ADR-RES ovarian): 1970 nM | TGI (NCI/ADR-RES ovarian): > 31000 nM | GI50 (SW-620 colon): 235 nM | TGI (SW-620 colon): > 21900 nM | GI50 (RPMI-8226 leukemia): 308 nM | TGI (RPMI-8226 leukemia): 14200 nM | GI50 (MDA-MB-231 breast): 313 nM | TGI (MDA-MB-231 breast): > 100000 nM | GI50 (HCT-116 colon): 314 nM | TGI (HCT-116 colon): > 100000 nM | GI50 (A549 NSCLC): 353 nM | TGI (A549 NSCLC): > 100000 nM | GI50 (U251 CNS): 333 nM | TGI (U251 CNS): > 100000 nM | GI50 (OVCAR-5 ovarian): 282 nM | TGI (OVCAR-5 ovarian): > 100000 nM | GI50 (TK-10 renal): 625 nM | TGI (TK-10 renal): > 100000 nM | GI50 (MDA-MB-435): 362 nM | TGI (MDA-MB-435): 10800 nM | GI50 (NCI-H522 lung): 262 nM | TGI (NCI-H522 lung): 1310 nM | GI50 (EKVX NSCLC): 319 nM | TGI (EKVX NSCLC): 2020 nM | GI50 (SF-539 CNS): 240 nM | TGI (SF-539 CNS): 781 nM | GI50 (CCRF-CEM leukemia): 326 nM | TGI (CCRF-CEM leukemia): > 100000 nM | GI50 (PC-3 prostate): 314 nM | TGI (PC-3 prostate): > 100000 nM | GI50 (NCI-H23 lung): 334 nM | TGI (NCI-H23 lung): 2150 nM | GI50 (SF-295 CNS): 298 nM | GI50 (IGROV1 ovarian): 347 nM | TGI (IGROV1 ovarian): > 100000 nM | GI50 (SK-MEL-5 melanoma): 219 nM | TGI (SK-MEL-5 melanoma): 498 nM | GI50 (CAKI-1 renal): 269 nM | TGI (CAKI-1 renal): > 100000 nM | GI50 (SK-MEL-2 melanoma): 549 nM | TGI (SK-MEL-2 melanoma): 3010 nM | GI50 (BT-549 breast): 226 nM | TGI (BT-549 breast): 800 nM | GI50 (SN12C renal): 351 nM | TGI (SN12C renal): > 100000 nM | GI50 (A498 renal): 167 nM | TGI (A498 renal): 391 nM | GI50 (RXF 393 renal): 179 nM | TGI (RXF 393 renal): 389 nM | GI50 (SNB-19 CNS): 318 nM | TGI (SNB-19 CNS): > 100000 nM | GI50 (SK-MEL-28 melanoma): 374 nM | TGI (SK-MEL-28 melanoma): 6800 nM | GI50 (T-47D breast): 402 nM | TGI (T-47D breast): > 100000 nM
